In ChEMBL document CHEMBL6121065, “Targeting the "Undruggable": Small-Molecule Inhibitors of Proliferating Cell Nuclear Antigen (PCNA) in the Spotlight in Cancer Therapy” (J Med Chem, 2025) one finds IC50 and Ki data, which are given here for 62 compounds.

The subject of one assay is Jurkat. Put plainly: Antiproliferative activity against human Jurkat cells assessed as reduction in cell growth measured for 48 hrs by MTT assay. The format is functional, cell-based.
For assay [1], the system named is HeLa. The experiment in a line: Antiproliferative activity against human HeLa cells assessed as reduction in cell growth measured for 48 hrs by MTT assay. The format is functional, cell-based.
In another assay the test system is HCT-116. The experiment in a line: Antiproliferative activity against human HCT-116 cells assessed as reduction in cell growth measured for 48 hrs by MTT assay. The format is functional, cell-based. Particulars: HCT-116, 48 h.
For the next assay, the system named is MCF7. The experiment in a line: Antiproliferative activity against human MCF7 cells assessed as reduction in cell growth measured for 48 hrs by MTT assay. The format is functional, cell-based. Particulars: MCF7, 48 h.
The subject of another assay is HepG2. The experiment in a line: Antiproliferative activity against human HepG2 cells assessed as reduction in cell growth measured for 48 hrs by MTT assay. The format is functional, cell-based. As to conditions: HepG2, 48 h.
Assay [2] addresses T1, Proliferating cell nuclear antigen (Homo sapiens, UniProt P12004). Put plainly: Binding affinity to N-terminal recombinant 6His-tagged PCNA (unknown origin) extracted from Escherichia coli BL21 (DE3) by fluorescence polarization assay.
Assay [3] relates to SK-N-AS. Put plainly: Antiproliferative activity against human SK-N-AS cells assessed as reduction in cell viability incubated for 72 hrs by cell-titer Glo assay. The format is functional, cell-based.
For the next assay, the system named is SK-N-DZ. Put plainly: Antiproliferative activity against human SK-N-DZ cells. The format is functional, cell-based.
Assay [4] in a line: Antiproliferative activity against human SK-N-BE(2)-C cells. The format is functional, cell-based.
Assay [5] concerns SK-N-AS. Put plainly: Anticancer activity against human SK-N-AS cells. The format is functional, cell-based.
The target in assay [6] is T1, Proliferating cell nuclear antigen. Put plainly: Inhibition of N-terminal 6His-tagged recombinant PCNA (unknown origin) extracted from Escherichia coli BL21 (DE3) by fluorescence based analysis.
Assay [7] concerns HeLa. Put plainly: Antiproliferative activity against human HeLa cells assessed as reduction in cell viability incubated for 72 hrs by MTT assay. The format is functional, cell-based.
Another assay has as its system A673. The experiment in a line: Antiproliferative activity against human A673 cells assessed as reduction in cell viability incubated for 72 hrs by MTT assay. The format is functional, cell-based. As to conditions: A673, 72 h.
A further assay concerns A549. The experiment in a line: Antiproliferative activity against human A549 cells assessed as reduction in cell viability incubated for 72 hrs by MTT assay. The format is functional, cell-based. Particulars: A549, 72 h.
In a further assay the test system is SH-SY5Y. The experiment in a line: Antiproliferative activity against human SH-SY5Y cells assessed as reduction in cell viability. The format is functional, cell-based.

T1 sequence (P12004 whole entry): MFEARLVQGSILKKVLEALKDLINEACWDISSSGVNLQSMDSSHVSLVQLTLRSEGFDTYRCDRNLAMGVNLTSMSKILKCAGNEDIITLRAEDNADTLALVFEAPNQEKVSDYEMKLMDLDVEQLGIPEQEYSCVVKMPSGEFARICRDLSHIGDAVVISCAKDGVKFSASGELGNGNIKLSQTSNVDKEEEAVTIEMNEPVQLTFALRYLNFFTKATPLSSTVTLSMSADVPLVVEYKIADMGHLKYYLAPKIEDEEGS

As to `COc1cc(C(=O)N2CCC(N3CCN(C)CC3)CC2)ccc1Nc1ncc2c(n1)N(C)c1ccccc1C(=O)N2C`, the IC50 was 5900 nM in the assay on Jurkat; 13500 nM in the assay with HeLa [1]; 9250 nM in the assay on HCT-116; 42800 nM with MCF7; 89100 nM in the assay on HepG2.

Consider `O=C1CN(C(=O)CCc2cc(I)c(Oc3ccc(O)cc3)c(I)c2)CCN1`, for which, in assay [2], the Ki is over 4810 nM.

Turning to `O=C(CNC(=O)c1cccc2ccccc12)Nc1ccc(Oc2ccncc2)cc1`, the IC50 with SK-N-AS [3] is 1100 nM.

Take `Cc1noc(C)c1S(=O)(=O)N[C@H](CO)Cc1cc(I)c(Oc2ccc(O)cc2)c(I)c1`: the Ki in assay [2] came to 150 nM.

Take `CN(C)C(=O)Cc1cc(I)c(Oc2ccc(O)cc2)c(I)c1`: the Ki in assay [2] worked out at 720 nM.

`O=C(CNC(=O)c1cccc2ccccc12)Nc1ccccc1Oc1cccc(O)c1`: the IC50 in the assay with SK-N-AS [3] was determined as 192 nM; in the assay on SK-N-DZ, 539 nM; in [4], 485 nM.

Take `N[C@H](CO)Cc1cc(I)c(Oc2ccc(O)c(I)c2)c(I)c1`: in assay [2], the Ki came to 60 nM.

Turning to `O=C(CNC(=O)c1cccc2ccccc12)Nc1cccc(Oc2ccncc2)c1`, the IC50 in the assay on SK-N-AS [3] was determined as 21600 nM.

As for `N[C@H](CNC(=O)CO)Cc1cc(I)c(Oc2ccc(O)cc2)c(I)c1`, the Ki in assay [2] worked out at 130 nM.

In the case of `O=C(Nc1ccccc1Oc1ccccc1)c1cccc2ccccc12`, in the assay with SK-N-AS [5], the IC50 was over 10000 nM.

In the case of `COc1ccc(S(=O)(=O)N[C@H](CO)Cc2cc(I)c(Oc3ccc(O)cc3)c(I)c2)cc1`, the Ki in assay [2] was 930 nM.

As for `Cc1cc(Oc2c(I)cc(C[C@H](N)CO)cc2I)ccc1O`, the Ki in assay [2] turned out to be 173 nM.

Turning to `O=C(CNC(=O)c1cncc2ccccc12)Nc1ccccc1Oc1ccncc1`, in the assay with SK-N-AS [3], the IC50 is over 30000 nM.

As for `O=C(CNC(=O)c1nccc2ccccc12)Nc1ccc(Oc2ccncc2)cc1`, in the assay with SK-N-AS [3], the IC50 was over 30000 nM.

Consider `NC(=O)CN(Cc1ccc(CO)cc1)C(=O)CNC(=O)CN[C@H](CO)Cc1cc(I)c(Oc2ccc(O)cc2)c(I)c1`, for which the half-maximal inhibitory concentration (IC50) in assay [6] came to 5560 nM.

For the compound `COc1cccc(Oc2ccccc2NC(=O)CNC(=O)c2cccc3ccccc23)c1`, the IC50 with SK-N-AS [3] was found to be 125 nM; in the assay with SK-N-DZ, 288 nM; in assay [4], 236 nM.

In the case of `O=C(CNC(=O)c1nccc2ccccc12)Nc1cccc(Oc2ccncc2)c1`, the half-maximal inhibitory concentration (IC50) with SK-N-AS [3] turned out to be 34000 nM.

Turning to `O=C(CNC(=O)c1cccc2ccccc12)Nc1ccc(Cl)cc1Oc1ccccc1`, the IC50 with SK-N-AS [3] came to 185 nM; in the assay with SK-N-DZ it was 447 nM; in assay [4], 500 nM.

In the assay with SK-N-AS [5], `O=C(O)CC[C@H](NC(=O)c1cccc2ccccc12)C(=O)Nc1ccccc1Oc1ccccc1` gave an IC50 of over 10000 nM.

Regarding `O=C(CNC(=O)c1cccc2ccccc12)Nc1ccccc1Oc1ccccc1`, the 50% inhibitory concentration (IC50) came out at 100 nM in the assay on SK-N-AS [3], 237 nM in the assay on SK-N-DZ and 325 nM in assay [4].

With `CNC(=O)Cc1cc(I)c(Oc2ccc(O)cc2)c(I)c1`, the Ki in assay [2] stood at 780 nM.

As for `O=C(CCc1cc(I)c(Oc2ccc(O)cc2)c(I)c1)N1CCCCC1`, the Ki in assay [2] is 231 nM.

On to `N[C@H](CNC(=O)NC(=O)CCN1CCOCC1)Cc1cc(I)c(Oc2ccc(O)cc2)c(I)c1`, for which, in [6], the IC50 was 1200 nM. Also, in assay [2], the Ki was determined as 110 nM.

With `O=C(CNC(=O)c1cncc2ccccc12)Nc1cccc(Oc2ccncc2)c1`, the IC50 with SK-N-AS [3] was over 30000 nM.

In the assay on SK-N-AS [5], `CC(C)[C@@H](NC(=O)c1cccc2ccccc12)C(=O)Nc1ccccc1Oc1ccccc1` gave an IC50 of over 10000 nM.

For the compound `O=C(CNC(=O)c1cncc2ccccc12)Nc1ccc(Oc2ccncc2)cc1`, the IC50 in the assay on SK-N-AS [3] was over 30000 nM.

With `COc1ccc(Oc2c(I)cc(CCC(=O)N3CCCCC3)cc2I)cc1`, the Ki in assay [2] amounted to 910 nM.

Consider `CS(=O)(=O)NC(=O)Cc1cc(I)c(Oc2ccc(O)cc2)c(I)c1`, for which, in assay [2], the Ki stood at 870 nM.

Turning to `COc1ccc(Oc2c(I)cc(CCC(=O)NS(C)(=O)=O)cc2I)cc1`, the Ki in [2] was over 4810 nM.

Consider `O=C(CCNC(=O)c1cccc2ccccc12)Nc1ccccc1Oc1ccccc1`, for which, in the assay with SK-N-AS [5], the IC50 was over 10000 nM.

On to `O=C(CNC(=O)c1cncc2ccccc12)Nc1ccccc1Oc1ccccc1`, for which the half-inhibitory concentration (IC50) in the assay with SK-N-AS [3] is over 30000 nM.

On to `NC(=O)CN(Cc1ccc(O)cc1)C(=O)CN(CCO)C(=O)CN[C@H](CO)Cc1cc(I)c(Oc2ccc(O)cc2)c(I)c1`, for which the Ki in assay [2] came to 40 nM.

For the compound `CS(=O)(=O)NC(=O)CCc1cc(I)c(Oc2ccc(O)cc2)c(I)c1`, the inhibition constant (Ki) in assay [2] was 1920 nM.

As for `O=C(Cc1cc(I)c(Oc2ccc(O)cc2)c(I)c1)N1CCOCC1`, the Ki in assay [2] was 600 nM.

In the assay on SK-N-AS [5], `NCCCC[C@H](NC(=O)c1cccc2ccccc12)C(=O)Nc1ccccc1Oc1ccccc1` returned an IC50 of over 10000 nM.

Regarding `COc1cccc(Oc2ccccc2NC(=O)[C@H](C)NC(=O)c2cccc3ccccc23)c1`, the IC50 in the assay on SK-N-AS [5] was over 10000 nM.

Consider `O=C(CNC(=O)c1cccc2ccccc12)Nc1c(Cl)cccc1Oc1ccccc1`, for which the IC50 (in the assay on SK-N-AS [3]; with SK-N-DZ; in [4]) was over 10000 nM in each case.

`O=C(O)CC[C@@H](NC(=O)c1cccc2ccccc12)C(=O)Nc1ccccc1Oc1ccccc1` registered a half-inhibitory concentration (IC50) in the assay on SK-N-AS [5] of over 10000 nM.

Turning to `COc1cccc(Oc2ccccc2NC(=O)CNC(=O)c2ccc(-c3ccccc3)cc2)c1`, the IC50 with SK-N-AS [3] is over 10000 nM.

Take `NC(=O)CN(Cc1ccc2c(c1)OCO2)C(=O)CN(CCO)C(=O)CN[C@H](CO)Cc1cc(I)c(Oc2ccc(O)cc2)c(I)c1`: the Ki in assay [2] amounted to 170 nM.

Regarding `NCc1ccc(CN(CC(N)=O)C(=O)CN(CCO)C(=O)CN[C@H](CO)Cc2cc(I)c(Oc3ccc(O)cc3)c(I)c2)cc1`, the IC50 in assay [6] stood at 1180 nM. The Ki in assay [2] came out at 114 nM.

For `O=C(CNC(=O)c1cccc2ccccc12)Nc1ccccc1Oc1ccncc1`, the IC50 in the assay on SK-N-AS [3] was over 50000 nM.

As to `NC[C@@H](N)Cc1cc(I)c(Oc2ccc(O)cc2)c(I)c1`, the Ki in assay [2] was 240 nM.

As to `CCNC(=O)Cc1cc(I)c(Oc2ccc(O)cc2)c(I)c1`, the Ki in [2] turned out to be 630 nM.

As to `O=S(=O)(N[C@H](CO)Cc1cc(I)c(Oc2ccc(O)cc2)c(I)c1)c1ccccc1`, the Ki in assay [2] was 570 nM.

As to `COc1ccc(Oc2ccccc2NC(=O)CNC(=O)c2cccc3ccccc23)cc1`, the results for the IC50 (in the assay on SK-N-AS [3]; with SK-N-DZ; in [4]) were 91 nM, 271 nM and 234 nM, respectively.

Consider `O=C(CNC(=O)c1cccc2ccccc12)Nc1ccccc1Oc1ccc(O)cc1`, for which the results for the IC50 (in the assay on SK-N-AS [3]; with SK-N-DZ; in assay [4]) were 156 nM, 467 nM and 490 nM, respectively.

As to `COc1cccc(Oc2ccccc2NC(=O)CNC(=O)CCc2cccc3ccccc23)c1`, the 50% inhibitory concentration (IC50) in the assay with SK-N-AS [3] is over 10000 nM.

On to `COc1cccc(Oc2ccccc2NC(=O)CNC(=O)Cc2cccc3ccccc23)c1`, for which the IC50 in the assay on SK-N-AS [3] is over 10000 nM.

Regarding `O=C(CNC(=O)c1nccc2ccccc12)Nc1ccccc1Oc1ccccc1`, in the assay with SK-N-AS [3], the IC50 is 35000 nM.

With `O=S(=O)(N[C@H](CO)Cc1cc(I)c(Oc2ccc(O)cc2)c(I)c1)c1ccc(O)cc1`, the Ki in [2] is 3080 nM.

As for `O=C(CNC(=O)c1nccc2ccccc12)Nc1ccccc1Oc1ccncc1`, the IC50 in the assay on SK-N-AS [3] came out at 42000 nM.

Regarding `CC(C)[C@H](NC(=O)c1cccc2ccccc12)C(=O)Nc1ccccc1Oc1ccccc1`, the IC50 with SK-N-AS [5] is over 10000 nM.

In the case of `O=C1CN(C(=O)Cc2cc(I)c(Oc3ccc(O)cc3)c(I)c2)CCN1`, in assay [2], the Ki was 870 nM.

As to `COc1cccc(Oc2ccccc2NC(=O)CNC(=O)c2c(C)cc(C)cc2C)c1`, the figures for the IC50 in the assay with HeLa [7], in the assay with A673 and in the assay on A549 were 6500 nM, 5500 nM and 4700 nM, respectively.

Turning to `C[C@H](NC(=O)c1cccc2ccccc12)C(=O)Nc1ccccc1Oc1ccccc1`, the IC50 in the assay on SH-SY5Y is 4000 nM.

With `O=C1NC[C@H](Cc2cc(I)c(Oc3ccc(O)cc3)c(I)c2)N1`, in assay [2], the inhibitory constant (Ki) was 540 nM.

`CNC(=O)CCc1cc(I)c(Oc2ccc(OC)cc2)c(I)c1`: the Ki in [2] is 1630 nM.

Turning to `O=C(CNC(=O)c1cccc2ccccc12)Nc1ccccc1Cc1ccccc1`, the concentration for half-maximal inhibition (IC50) in the assay with SK-N-AS [3] was determined as 1100 nM.

In the assay with SK-N-AS [5], `NCCCC[C@@H](NC(=O)c1cccc2ccccc12)C(=O)Nc1ccccc1Oc1ccccc1` showed an IC50 of over 10000 nM.

In the case of `N[C@H](CNC(=O)NCc1ccccc1)Cc1cc(I)c(Oc2ccc(O)cc2)c(I)c1`, the Ki in assay [2] was 10 nM.

In the case of `CCCCCCNC(=O)NC[C@@H](N)Cc1cc(I)c(Oc2ccc(O)cc2)c(I)c1`, the Ki in assay [2] turned out to be 120 nM.
